In patent publication US20080274882A1, “Insecticides Based on Selected Neonicotinoids and Strobilurins” (Bayer CropScience AG, priority 2004, published 2008):

Key:
[1] = test system: Myzus persicae; test: Myzus persicae test (cabbage leaf dip); type: in vivo; conditions: for Kill in % after 1 day: Table A1; for Kill in % after 6 days: Table A2
[2] = test system: Phaedon cochleariae larvae; test: Phaedon cochleariae larvae test (cabbage leaf dip)

## CN/C(=N\[N+](=O)[O-])NCc1cnc(Cl)s1 [clothianidin]
[1]; 0.8 ppm
  Kill in % after 1 day: 40%
  Kill in % after 6 days: 30%
[2]; 4 ppm, Table B1
  Kill in % after 6^d: 20%
[2]; 4 ppm, Table B2
  Kill in % after 6^d: 60%

## CNC(=O)/C(=N/OC)c1ccccc1COc1cc(C)ccc1C [dimoxystrobin]
[2]; 20 ppm, Table B2
  Kill in % after 6^d: 0%

## CO/C=C(/C(=O)OC)c1ccccc1COc1cccc(C(F)(F)F)n1 [picoxystrobin]
[1]; 100 ppm
  Kill in % after 1 day: 0%
[2]; 100 ppm, Table B1
  Kill in % after 6^d: 0%

## pyraclostrobin
[1]; 100 ppm
  Kill in % after 6 days: 35%
